Reference: ChEMBL document CHEMBL4371021, “BH3 mimetics derived from Bim-BH3 domain core region show PTP1B inhibitory activity” (Bioorg Med Chem Lett, 2019)
The source made the active and inactive calls. The calls are words filed in the database; no cut-off is given here. Residues, ends and D or L forms follow the SMILES beside them.

Experiments:
[1] = target: T1, Tyrosine-protein phosphatase non-receptor type 2 (Homo sapiens) (UniProt P17706); test: Inhibition of human GST-tagged TCPTP (41 to 1075 residues) expressed in Escherichia coli at 20 umol/L using pNPP as substrate measured for 4 mins relative to control
T1 sequence (whole entry): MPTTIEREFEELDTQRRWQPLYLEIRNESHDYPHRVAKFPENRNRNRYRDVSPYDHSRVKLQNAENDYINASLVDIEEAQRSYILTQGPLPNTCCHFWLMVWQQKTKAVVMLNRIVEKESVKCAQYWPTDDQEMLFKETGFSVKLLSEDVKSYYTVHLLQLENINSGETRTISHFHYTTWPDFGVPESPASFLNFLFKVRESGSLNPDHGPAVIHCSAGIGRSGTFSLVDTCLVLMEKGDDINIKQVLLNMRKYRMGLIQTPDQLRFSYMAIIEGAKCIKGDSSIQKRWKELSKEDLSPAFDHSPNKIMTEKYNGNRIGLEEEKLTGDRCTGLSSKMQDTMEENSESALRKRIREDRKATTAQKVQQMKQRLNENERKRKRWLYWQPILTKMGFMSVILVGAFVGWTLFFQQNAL

[2] = target: T2, Tyrosine-protein phosphatase non-receptor type 1 (Homo sapiens) (UniProt P18031); test: Binding affinity to recombinant human N-terminal poly histidine-tagged PTP1B (Glu2 to Asn321 residues) expressed in Escherichia coli assessed as association rate constant by surface plasmon resonance analysis
T2 sequence (whole entry): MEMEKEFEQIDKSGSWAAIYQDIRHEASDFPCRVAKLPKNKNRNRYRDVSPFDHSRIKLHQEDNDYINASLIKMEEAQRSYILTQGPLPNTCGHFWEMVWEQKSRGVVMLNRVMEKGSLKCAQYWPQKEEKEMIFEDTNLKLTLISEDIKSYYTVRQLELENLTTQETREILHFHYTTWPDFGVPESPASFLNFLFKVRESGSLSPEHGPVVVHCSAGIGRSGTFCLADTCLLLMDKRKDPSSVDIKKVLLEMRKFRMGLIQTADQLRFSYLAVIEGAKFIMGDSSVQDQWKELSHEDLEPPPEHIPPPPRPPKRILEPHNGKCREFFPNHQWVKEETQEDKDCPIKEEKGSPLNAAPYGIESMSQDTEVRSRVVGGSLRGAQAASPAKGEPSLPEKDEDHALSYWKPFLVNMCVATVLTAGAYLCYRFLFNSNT

[3] = target: T2, Tyrosine-protein phosphatase non-receptor type 1 (Homo sapiens); test: Binding affinity to recombinant human N-terminal poly histidine-tagged PTP1B (Glu2 to Asn321 residues) expressed in Escherichia coli assessed as dissociation rate constant by surface plasmon resonance analysis
[4] = target: T3, Tyrosine-protein phosphatase non-receptor type 1 (Homo sapiens, UniProt P18031); test: Binding affinity to recombinant human N-terminal poly histidine-tagged PTP1B (Glu2 to Asn321 residues) expressed in Escherichia coli by surface plasmon resonance analysis
T3 sequence (P18031 whole entry): T2 sequence (whole entry)

[5] = target: T2, Tyrosine-protein phosphatase non-receptor type 1 (Homo sapiens); test: Inhibition of recombinant human N-terminal poly histidine-tagged PTP1B (Glu2 to Asn321 residues) expressed in Escherichia coli at 40 umol/L using pNPP as substrate measured for 4 mins relative to control
[6] = target: T3, Tyrosine-protein phosphatase non-receptor type 1; test: Inhibition of recombinant human N-terminal poly histidine-tagged PTP1B (Glu2 to Asn321 residues) expressed in Escherichia coli using pNPP as substrate measured for 4 mins
[7] = target: T2, Tyrosine-protein phosphatase non-receptor type 1 (Homo sapiens); test: Inhibition of recombinant human N-terminal poly histidine-tagged PTP1B (Glu2 to Asn321 residues) expressed in Escherichia coli at 20 umol/L using pNPP as substrate measured for 4 mins relative to control
[8] = target: T2, Tyrosine-protein phosphatase non-receptor type 1 (Homo sapiens); test: Inhibition of recombinant human N-terminal poly histidine-tagged PTP1B (Glu2 to Asn321 residues) expressed in Escherichia coli at 10 umol/L using pNPP as substrate measured for 4 mins relative to control
[9] = target: T2, Tyrosine-protein phosphatase non-receptor type 1 (Homo sapiens); test: Inhibition of recombinant human N-terminal poly histidine-tagged PTP1B (Glu2 to Asn321 residues) expressed in Escherichia coli at 5 umol/L using pNPP as substrate measured for 4 mins relative to control
[10] = target: T2, Tyrosine-protein phosphatase non-receptor type 1 (Homo sapiens); test: Inhibition of recombinant human N-terminal poly histidine-tagged PTP1B (Glu2 to Asn321 residues) expressed in Escherichia coli at 2.5 umol/L using pNPP as substrate measured for 4 mins relative to control
[11] = target: T2, Tyrosine-protein phosphatase non-receptor type 1 (Homo sapiens); test: Inhibition of recombinant human N-terminal poly histidine-tagged PTP1B (Glu2 to Asn321 residues) expressed in Escherichia coli at 1 umol/L using pNPP as substrate measured for 4 mins relative to control
[12] = target: T2, Tyrosine-protein phosphatase non-receptor type 1 (Homo sapiens); test: Inhibition of recombinant human N-terminal poly histidine-tagged PTP1B (Glu2 to Asn321 residues) expressed in Escherichia coli at 0.5 umol/L using pNPP as substrate measured for 4 mins relative to control
[13] = target: T1, Tyrosine-protein phosphatase non-receptor type 2 (Homo sapiens); test: Inhibition of human GST-tagged TCPTP (41 to 1075 residues) expressed in Escherichia coli at 10 umol/L using pNPP as substrate measured for 4 mins relative to control
[14] = target: T1, Tyrosine-protein phosphatase non-receptor type 2 (Homo sapiens); test: Inhibition of human GST-tagged TCPTP (41 to 1075 residues) expressed in Escherichia coli at 5 umol/L using pNPP as substrate measured for 4 mins relative to control
[15] = target: T1, Tyrosine-protein phosphatase non-receptor type 2 (Homo sapiens); test: Inhibition of human GST-tagged TCPTP (41 to 1075 residues) expressed in Escherichia coli at 2.5 umol/L using pNPP as substrate measured for 4 mins relative to control
[16] = target: T1, Tyrosine-protein phosphatase non-receptor type 2 (Homo sapiens); test: Inhibition of human GST-tagged TCPTP (41 to 1075 residues) expressed in Escherichia coli at 1 umol/L using pNPP as substrate measured for 4 mins relative to control
[17] = target: T1, Tyrosine-protein phosphatase non-receptor type 2 (Homo sapiens); test: Inhibition of human GST-tagged TCPTP (41 to 1075 residues) expressed in Escherichia coli at 0.5 umol/L using pNPP as substrate measured for 4 mins relative to control
[18] = target: Tyrosine-protein phosphatase non-receptor type 6 (Homo sapiens) (UniProt P29350); test: Inhibition of SHP1 (unknown origin) at 20 umol/L using OMFP as substrate measured for 4 mins relative to control
Tyrosine-protein phosphatase non-receptor type 6 (Homo sapiens), sequence (P29350 whole entry, the tested form may be a part): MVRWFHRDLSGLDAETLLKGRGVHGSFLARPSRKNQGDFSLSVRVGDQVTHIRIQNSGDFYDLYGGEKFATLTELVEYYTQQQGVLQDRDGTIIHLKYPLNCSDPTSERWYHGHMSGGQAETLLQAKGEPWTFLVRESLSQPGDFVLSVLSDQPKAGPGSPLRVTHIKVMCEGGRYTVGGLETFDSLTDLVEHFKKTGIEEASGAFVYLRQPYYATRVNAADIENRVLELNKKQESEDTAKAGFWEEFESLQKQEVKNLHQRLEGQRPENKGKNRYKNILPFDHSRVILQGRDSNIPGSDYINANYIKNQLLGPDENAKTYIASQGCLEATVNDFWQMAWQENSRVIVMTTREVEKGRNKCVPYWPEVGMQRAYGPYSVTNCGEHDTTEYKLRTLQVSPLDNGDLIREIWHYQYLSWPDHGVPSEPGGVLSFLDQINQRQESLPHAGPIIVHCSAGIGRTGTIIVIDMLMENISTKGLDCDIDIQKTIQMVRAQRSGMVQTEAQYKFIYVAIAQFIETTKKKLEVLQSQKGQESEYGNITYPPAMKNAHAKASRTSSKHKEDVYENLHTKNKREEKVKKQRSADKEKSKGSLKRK

[19] = target: Tyrosine-protein phosphatase non-receptor type 6 (Homo sapiens) (UniProt P29350); test: Inhibition of SHP1 (unknown origin) at 10 umol/L using OMFP as substrate measured for 4 mins relative to control
[20] = target: Tyrosine-protein phosphatase non-receptor type 6 (Homo sapiens) (UniProt P29350); test: Inhibition of SHP1 (unknown origin) at 5 umol/L using OMFP as substrate measured for 4 mins relative to control
[21] = target: Tyrosine-protein phosphatase non-receptor type 6 (Homo sapiens) (UniProt P29350); test: Inhibition of SHP1 (unknown origin) at 2.5 umol/L using OMFP as substrate measured for 4 mins relative to control
[22] = target: Tyrosine-protein phosphatase non-receptor type 6 (Homo sapiens) (UniProt P29350); test: Inhibition of SHP1 (unknown origin) at 1 umol/L using OMFP as substrate measured for 4 mins relative to control
[23] = target: Tyrosine-protein phosphatase non-receptor type 6 (Homo sapiens) (UniProt P29350); test: Inhibition of SHP1 (unknown origin) at 0.5 umol/L using OMFP as substrate measured for 4 mins relative to control
[24] = target: T4, Tyrosine-protein phosphatase non-receptor type 11 (Homo sapiens) (UniProt Q06124); test: Inhibition of human GST-tagged SHP2 (1116 to 2162 residues) at 20 umol/L using OMFP as substrate measured for 4 mins relative to control
T4 sequence (whole entry): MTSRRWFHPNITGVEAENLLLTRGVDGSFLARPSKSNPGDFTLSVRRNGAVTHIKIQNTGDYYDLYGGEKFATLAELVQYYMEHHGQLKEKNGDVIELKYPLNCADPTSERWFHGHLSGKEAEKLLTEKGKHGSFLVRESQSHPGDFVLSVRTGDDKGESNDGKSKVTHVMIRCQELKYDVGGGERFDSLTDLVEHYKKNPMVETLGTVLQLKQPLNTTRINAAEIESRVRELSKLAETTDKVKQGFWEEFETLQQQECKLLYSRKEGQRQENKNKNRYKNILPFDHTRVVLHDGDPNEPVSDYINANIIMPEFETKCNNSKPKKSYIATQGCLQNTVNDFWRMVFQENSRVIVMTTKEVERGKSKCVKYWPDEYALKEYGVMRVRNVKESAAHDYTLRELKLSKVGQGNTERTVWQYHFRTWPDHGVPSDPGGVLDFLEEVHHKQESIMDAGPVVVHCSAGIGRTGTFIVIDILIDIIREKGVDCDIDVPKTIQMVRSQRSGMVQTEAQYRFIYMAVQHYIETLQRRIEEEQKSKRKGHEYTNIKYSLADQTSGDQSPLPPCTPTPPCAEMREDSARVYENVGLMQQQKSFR

[25] = target: T4, Tyrosine-protein phosphatase non-receptor type 11 (Homo sapiens); test: Inhibition of human GST-tagged SHP2 (1116 to 2162 residues) at 10 umol/L using OMFP as substrate measured for 4 mins relative to control
[26] = target: T4, Tyrosine-protein phosphatase non-receptor type 11 (Homo sapiens); test: Inhibition of human GST-tagged SHP2 (1116 to 2162 residues) at 5 umol/L using OMFP as substrate measured for 4 mins relative to control
[27] = target: T4, Tyrosine-protein phosphatase non-receptor type 11 (Homo sapiens); test: Inhibition of human GST-tagged SHP2 (1116 to 2162 residues) at 2.5 umol/L using OMFP as substrate measured for 4 mins relative to control
[28] = target: T4, Tyrosine-protein phosphatase non-receptor type 11 (Homo sapiens); test: Inhibition of human GST-tagged SHP2 (1116 to 2162 residues) at 1 umol/L using OMFP as substrate measured for 4 mins relative to control
[29] = target: T4, Tyrosine-protein phosphatase non-receptor type 11 (Homo sapiens); test: Inhibition of human GST-tagged SHP2 (1116 to 2162 residues) at 0.5 umol/L using OMFP as substrate measured for 4 mins relative to control
[30] = target: Receptor-type tyrosine-protein phosphatase F (Homo sapiens) (UniProt P10586); test: Inhibition of LAR (unknown origin) at 20 umol/L using OMFP as substrate measured for 4 mins relative to control
Receptor-type tyrosine-protein phosphatase F (Homo sapiens), sequence (P10586 whole entry): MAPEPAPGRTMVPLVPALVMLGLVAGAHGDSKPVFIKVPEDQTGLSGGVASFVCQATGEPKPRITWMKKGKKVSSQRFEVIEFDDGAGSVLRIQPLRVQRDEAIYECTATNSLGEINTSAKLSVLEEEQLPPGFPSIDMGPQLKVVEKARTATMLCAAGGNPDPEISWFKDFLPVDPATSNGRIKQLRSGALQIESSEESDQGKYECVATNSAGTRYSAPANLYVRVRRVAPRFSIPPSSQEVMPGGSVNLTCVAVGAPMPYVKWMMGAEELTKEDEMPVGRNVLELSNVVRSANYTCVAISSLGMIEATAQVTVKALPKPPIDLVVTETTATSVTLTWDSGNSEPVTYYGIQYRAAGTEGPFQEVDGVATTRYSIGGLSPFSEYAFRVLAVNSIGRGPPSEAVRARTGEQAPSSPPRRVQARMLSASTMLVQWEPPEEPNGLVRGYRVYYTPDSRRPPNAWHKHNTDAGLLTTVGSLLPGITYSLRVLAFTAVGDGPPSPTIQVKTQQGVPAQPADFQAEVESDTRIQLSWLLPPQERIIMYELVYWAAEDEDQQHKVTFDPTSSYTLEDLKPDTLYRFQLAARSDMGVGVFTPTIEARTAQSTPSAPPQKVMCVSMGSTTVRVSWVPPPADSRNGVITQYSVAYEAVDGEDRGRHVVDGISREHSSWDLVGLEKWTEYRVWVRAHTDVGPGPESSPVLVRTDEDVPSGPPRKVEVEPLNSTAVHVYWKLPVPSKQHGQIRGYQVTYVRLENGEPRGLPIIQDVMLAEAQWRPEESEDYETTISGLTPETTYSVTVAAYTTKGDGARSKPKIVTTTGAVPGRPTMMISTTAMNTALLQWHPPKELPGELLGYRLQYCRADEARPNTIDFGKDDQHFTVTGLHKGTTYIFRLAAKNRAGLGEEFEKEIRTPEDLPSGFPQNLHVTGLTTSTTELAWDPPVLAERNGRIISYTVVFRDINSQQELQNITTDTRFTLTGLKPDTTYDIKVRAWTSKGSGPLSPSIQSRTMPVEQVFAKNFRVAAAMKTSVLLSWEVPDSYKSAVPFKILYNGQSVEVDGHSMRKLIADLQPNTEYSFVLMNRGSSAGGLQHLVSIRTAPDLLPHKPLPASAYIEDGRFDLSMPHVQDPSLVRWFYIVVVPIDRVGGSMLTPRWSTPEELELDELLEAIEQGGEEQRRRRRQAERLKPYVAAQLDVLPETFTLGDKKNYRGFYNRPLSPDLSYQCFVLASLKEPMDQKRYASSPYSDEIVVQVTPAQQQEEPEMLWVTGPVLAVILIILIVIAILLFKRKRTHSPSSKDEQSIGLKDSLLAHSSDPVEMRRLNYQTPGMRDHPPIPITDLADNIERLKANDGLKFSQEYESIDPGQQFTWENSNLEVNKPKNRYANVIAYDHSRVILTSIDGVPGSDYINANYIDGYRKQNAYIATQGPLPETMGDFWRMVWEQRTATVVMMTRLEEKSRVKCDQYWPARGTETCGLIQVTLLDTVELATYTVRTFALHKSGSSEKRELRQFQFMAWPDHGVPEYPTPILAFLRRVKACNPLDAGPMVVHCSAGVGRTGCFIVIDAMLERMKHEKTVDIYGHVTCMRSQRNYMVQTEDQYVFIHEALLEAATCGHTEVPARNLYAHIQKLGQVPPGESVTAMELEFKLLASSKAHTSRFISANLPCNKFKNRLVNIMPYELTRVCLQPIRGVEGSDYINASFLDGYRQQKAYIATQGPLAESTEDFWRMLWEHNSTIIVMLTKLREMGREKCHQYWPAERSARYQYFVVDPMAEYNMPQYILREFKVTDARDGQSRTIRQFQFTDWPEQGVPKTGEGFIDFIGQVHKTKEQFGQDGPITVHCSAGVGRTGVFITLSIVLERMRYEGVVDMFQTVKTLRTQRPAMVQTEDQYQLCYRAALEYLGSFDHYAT

[31] = target: Receptor-type tyrosine-protein phosphatase F (Homo sapiens) (UniProt P10586); test: Inhibition of LAR (unknown origin) at 10 umol/L using OMFP as substrate measured for 4 mins relative to control
[32] = target: Receptor-type tyrosine-protein phosphatase F (Homo sapiens) (UniProt P10586); test: Inhibition of LAR (unknown origin) at 5 umol/L using OMFP as substrate measured for 4 mins relative to control
[33] = target: Receptor-type tyrosine-protein phosphatase F (Homo sapiens) (UniProt P10586); test: Inhibition of LAR (unknown origin) at 2.5 umol/L using OMFP as substrate measured for 4 mins relative to control
[34] = target: Receptor-type tyrosine-protein phosphatase F (Homo sapiens) (UniProt P10586); test: Inhibition of LAR (unknown origin) at 1 umol/L using OMFP as substrate measured for 4 mins relative to control
[35] = target: Receptor-type tyrosine-protein phosphatase F (Homo sapiens) (UniProt P10586); test: Inhibition of LAR (unknown origin) at 0.5 umol/L using OMFP as substrate measured for 4 mins relative to control
HepG2 [36] = test: Cytotoxicity against human HepG2 cells assessed as effect on cell viability at 0.1 to 10 umol/L after 24 hrs by MTT assay; format: cell-based; details: hepg2, 24 h
HepG2 [37] = test: Induction of insulin-stimulated 2-NBDG uptake in palmitic acid-induced insulin resistant human HepG2 cells at 1 to 10 umol/L preincubated for 24 hrs followed by insulin stimulation and measured after 30 mins by fluorescence assay; format: functional, cell-based
HepG2 [38] = test: Inhibition of PTP1B expression in palmitic acid-induced insulin resistant human HepG2 cells at 0.1 to 10 uM by western blot analysis; format: functional, cell-based

CCCCCCCCCCCCCCCC(=O)N[C@H](C(=O)N[C@@H](C)C(=O)N[C@@H](CCC(N)=O)C(=O)N[C@@H](CCC(=O)O)C(=O)N[C@@H](CC(C)C)C(=O)N[C@@H](CCCNC(=N)N)C(=O)N[C@@H](CCCNC(=N)N)C(=O)N[C@H](C(=O)NCC(=O)N[C@@H](CC(=O)O)C(=O)N[C@@H](CCC(=O)O)C(=O)N[C@@H](Cc1ccccc1)C(N)=O)[C@@H](C)CC)[C@@H](C)CC (HELM PEPTIDE1{[CCCCCCCCCCCCCCCC(=O)[*:2]].I.A.Q.E.L.R.R.I.G.D.E.F.[am]}$$$$V2.0)
inhibition [1]: 35.2%
Ka [2]: 2.17 ×10⁴ /Ms
Kdiss [3]: 1.82 ×10⁻⁴ /s
Kd [4]: 8.38 nM
inhibition [5]: 98%
IC50 [6]: 1200 nM
inhibition [7]: 93.7%
inhibition [8]: 92%
inhibition [9]: 89.3%
inhibition [10]: 80.6%
inhibition [11]: 47.2%
inhibition [12]: 8.68%
inhibition [13]: 12.2%
inhibition [14]: 8.63%
inhibition [15]: 8.22%
inhibition [16]: 6.22%
inhibition [17]: 5.25%
inhibition [18]: 9.22%
inhibition [19]: 3.89%
inhibition [20]: 2.22%
inhibition [21]: 2.88%
inhibition [22]: 1.36%
inhibition [23]: 2.03%
inhibition [24]: 10.6%
inhibition [25]: 2.77%
inhibition [26]: 2.83%
inhibition [27]: 3.52%
inhibition [28]: 2.02%
inhibition [29]: 0.96%
inhibition [30]: 1.73%
inhibition [31]: 3.36%
inhibition [32]: 1.52%
inhibition [33]: 2.33%
inhibition [34]: 3.88%
inhibition [35]: 2.02%
Activity (HepG2 [36]): Non-Toxic
Activity (HepG2 [37]): Active
inhibition (HepG2 [38]): Active

CC[C@H](C)[C@H](NC(=O)COCCOCCOCCOCCOC)C(=O)N[C@@H](C)C(=O)N[C@@H](CCC(N)=O)C(=O)N[C@@H](CCC(=O)O)C(=O)N[C@@H](CC(C)C)C(=O)N[C@@H](CCCNC(=N)N)C(=O)N[C@@H](CCCNC(=N)N)C(=O)N[C@H](C(=O)NCC(=O)N[C@@H](CC(=O)O)C(=O)N[C@@H](CCC(=O)O)C(=O)N[C@@H](Cc1ccccc1)C(N)=O)[C@@H](C)CC (HELM PEPTIDE1{[COCCOCCOCCOCCOCC(=O)[*:2]].I.A.Q.E.L.R.R.I.G.D.E.F.[am]}$$$$V2.0)
inhibition [5]: 4.25%
